The supplement of paper PMC10307832

Legend:
Assay in all cases: relative viability (nuclei count vs DMSO), 5 days (fraction); higher = more cells survive
[1] = compound: CN(c1ncccc1CNc1nc(Nc2ccc3c(c2)CC(=O)N3)ncc1C(F)(F)F)S(C)(=O)=O + Cc1nc(Nc2ncc(C(=O)Nc3c(C)cccc3Cl)s2)cc(N2CCN(CCO)CC2)n1 [Dasatinib] (partner 0.075 µM)
Procedure, shortened: (§1)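 One day after seeding in 1536-well plates, lung cancer cell lines were dosed by pin tool. Dosing was either single-drug or a fixed anchor-drug dose plus five library-drug doses (not always all listed) in √10 steps. After 5 days, nuclei were stained in one fix-and-stain step and counted on 4× images, and relative viability is the nuclei count of treated wells over that of vehicle wells, given as the median of duplicate plates.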

[2] = compound: CN(c1ncccc1CNc1nc(Nc2ccc3c(c2)CC(=O)N3)ncc1C(F)(F)F)S(C)(=O)=O + CS(=O)(=O)N1CCN(Cc2cc3nc(-c4cccc5[nH]ncc45)nc(N4CCOCC4)c3s2)CC1 [Pictilisib] (partner 1 µM)
Procedure, shortened: as §1

[3] = compound: CN(c1ncccc1CNc1nc(Nc2ccc3c(c2)CC(=O)N3)ncc1C(F)(F)F)S(C)(=O)=O + C[C@@H](Oc1cc(-c2cnn(C3CCNCC3)c2)cnc1N)c1c(Cl)ccc(F)c1Cl [Crizotinib] (partner 1 µM)
Procedure, shortened: as §1

[4] = compound: CN(c1ncccc1CNc1nc(Nc2ccc3c(c2)CC(=O)N3)ncc1C(F)(F)F)S(C)(=O)=O + O=C(CCCCCCC(=O)Nc1ccccc1)NO [Vorinostat] (partner 1 µM)
Procedure, shortened: as §1

| Cell Line | relative viability ([1]; first compound 0.01 µM) | relative viability ([1]; first compound 0.03162 µM) | relative viability ([1]; first compound 0.1 µM) | relative viability ([1]; first compound 0.3162 µM) | relative viability ([1]; first compound 1 µM) | relative viability ([2]; first compound 0.01 µM) | relative viability ([2]; first compound 0.03162 µM) | relative viability ([2]; first compound 0.1 µM) | relative viability ([2]; first compound 0.3162 µM) | relative viability ([2]; first compound 1 µM) | relative viability ([3]; first compound 0.01 µM) | relative viability ([3]; first compound 0.03162 µM) | relative viability ([3]; first compound 0.1 µM) | relative viability ([3]; first compound 0.3162 µM) | relative viability ([3]; first compound 1 µM) | relative viability ([4]; first compound 0.01 µM) | relative viability ([4]; first compound 0.03162 µM) | relative viability ([4]; first compound 0.1 µM) | relative viability ([4]; first compound 0.3162 µM) | relative viability ([4]; first compound 1 µM) |
| --- | --- | --- | --- | --- | --- | --- | --- | --- | --- | --- | --- | --- | --- | --- | --- | --- | --- | --- | --- | --- |
| NCI-H1666 | 0.804 | 0.778 | 0.961 | 0.935 | 0.603 | 0.549 | 0.373 | 0.404 | 0.532 | 0.404 | 0.968 | 0.951 | 0.781 | 0.596 | 0.642 | 1.07 | 0.94 | 0.926 | 0.758 | 0.767 |
| NCI-H1734 | 0.423 | 0.436 | 0.399 | 0.339 | 0.34 | 0.418 | 0.555 | 0.454 | 0.468 | 0.475 | 0.684 | 0.734 | 0.752 | 0.656 | 0.618 | 0.809 | 0.818 | 0.799 | 0.8 | 0.781 |
| NCI-H1755 | 0.414 | 0.412 | 0.329 | 0.365 | 0.325 | 0.436 | 0.417 | 0.426 | 0.477 | 0.451 | 0.873 | 0.94 | 0.889 | 0.781 | 0.777 | 0.79 | 0.756 | 0.787 | 0.75 | 0.66 |
| NCI-H1915 | 0.296 | 0.269 | 0.292 | 0.295 | 0.309 | 1.01 | 0.826 | 0.905 | 1.01 | 0.939 | 0.908 | 0.915 | 0.877 | 0.834 | 0.885 | 0.535 | 0.534 | 0.593 | 0.536 | 0.519 |
| NCI-H1944 | 0.232 | 0.231 | 0.202 | 0.252 | 0.276 | 0.356 | 0.352 | 0.335 | 0.342 | 0.396 | 0.998 | 1.11 | 1.08 | 1.08 | 1.06 | 0.587 | 0.508 | 0.586 | 0.585 | 0.534 |
| NCI-H1975 | 0.359 | 0.272 | 0.28 | 0.27 | 0.262 | 0.278 | 0.282 | 0.337 | 0.268 | 0.281 | 0.999 | 0.981 | 0.911 | 0.96 | 0.746 | 0.726 | 0.688 | 0.666 | 0.71 | 0.613 |
| NCI-H1993 | 0.601 | 0.48 | 0.506 | 0.78 | 0.593 | 0.832 | 0.754 | 0.856 | 0.828 | 0.775 | 0.908 | 0.907 | 0.774 | 0.899 | 0.846 | 0.831 | 0.773 | 0.805 | 0.709 | 0.577 |
| NCI-H2009 | 0.23 | 0.217 | 0.244 | 0.229 | 0.238 | 0.793 | 0.91 | 0.745 | 0.95 | 0.958 | 1.01 | 1.06 | 1.06 | 1.02 | 1.04 | 0.724 | 0.838 | 0.693 | 0.75 | 0.685 |
| NCI-H2023 | 0.476 | 0.588 | 0.428 | 0.432 | 0.448 | 0.265 | 0.329 | 0.199 | 0.225 | 0.2 | 0.679 | 0.766 | 0.682 | 0.585 | 0.537 | 0.636 | 0.826 | 0.666 | 0.709 | 0.487 |
| NCI-H2085 | 0.215 | 0.232 | 0.178 | 0.183 | 0.152 | 0.449 | 0.49 | 0.624 | 0.469 | 0.515 | 0.94 | 0.799 | 0.742 | 0.778 | 0.648 | 0.816 | 0.837 | 0.761 | 0.734 | 0.691 |
| NCI-H2087 | 0.828 | 0.795 | 0.61 | 0.542 | 0.451 | 0.852 | 0.77 | 0.978 | 0.914 | 0.951 | 0.787 | 0.915 | 0.784 | 0.889 | 0.749 | 0.722 | 0.872 | 0.901 | 0.613 | 0.589 |
| NCI-H2126 | 0.55 | 0.559 | 0.469 | 0.381 | 0.347 | 0.495 | 0.469 | 0.452 | 0.533 | 0.459 | 1.03 | 1.09 | 0.975 | 0.942 | 0.916 | 0.76 | 0.845 | 0.642 | 0.831 | 0.701 |
| NCI-H2170 | 0.455 | 0.526 | 0.461 | 0.504 | 0.404 | 0.355 | 0.312 | 0.316 | – | 0.332 | 1.23 | 1.22 | 1.31 | – | 1.21 | 0.817 | 0.882 | 0.836 | 0.832 | 0.859 |
| NCI-H2228 | 0.549 | 0.433 | 0.42 | 0.404 | 0.339 | 0.422 | 0.453 | 0.376 | 0.358 | 0.294 | 0.408 | 0.516 | 0.39 | 0.47 | 0.402 | 0.42 | 0.579 | 0.758 | 0.882 | 0.547 |
| NCI-H2347 | 0.283 | 0.313 | 0.331 | 0.297 | 0.283 | 0.609 | 0.614 | 0.74 | 0.919 | 0.362 | 0.698 | 0.692 | 0.61 | 0.661 | 0.658 | 0.584 | 0.615 | 0.527 | 0.54 | 0.413 |
| NCI-H2405 | 0.229 | 0.197 | 0.184 | 0.22 | 0.218 | 0.552 | 0.393 | 0.42 | 0.383 | 0.376 | 0.865 | 0.835 | 0.801 | 0.813 | 0.744 | 0.961 | 0.724 | 0.971 | 0.761 | 0.868 |
